One experiment has as its target T1, human IRAK4 (Homo sapiens, UniProt Q9NWZ3).
T1 construct: purchased Reaction Biology Corp
T1 sequence (Q9NWZ3 1-460): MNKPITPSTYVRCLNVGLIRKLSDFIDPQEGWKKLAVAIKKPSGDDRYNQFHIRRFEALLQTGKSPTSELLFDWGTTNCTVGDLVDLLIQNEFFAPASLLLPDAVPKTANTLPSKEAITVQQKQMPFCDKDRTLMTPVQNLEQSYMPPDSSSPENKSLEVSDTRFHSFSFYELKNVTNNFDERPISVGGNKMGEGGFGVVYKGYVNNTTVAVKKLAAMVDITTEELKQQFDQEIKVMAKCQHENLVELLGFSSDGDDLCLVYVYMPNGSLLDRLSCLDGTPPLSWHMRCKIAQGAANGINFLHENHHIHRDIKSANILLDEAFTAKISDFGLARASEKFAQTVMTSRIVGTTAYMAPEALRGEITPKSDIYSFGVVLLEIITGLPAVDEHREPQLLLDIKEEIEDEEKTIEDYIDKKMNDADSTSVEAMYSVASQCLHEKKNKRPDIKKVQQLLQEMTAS
Kind of experiment: In vitro IRAK4 kinase activity, 33P isotope-labeled kinase activity assay (Reaction Biology Corp). It is filed as biochemical. As to the method:
The IC50 values were determined using ^33P isotope-labeled kinase activity assay (Reaction Biology Corp) to evaluate the inhibitory ability of the tested compounds on human IRAK4.
(§1) Buffer conditions: 20 mM Hepes (pH 7.5), 10 mM MgCl2, 1 mM EGTA, 0.02% Brij35, 0.02 mg/mL BSA, 0.1 mM Na3VO4, 2 mM DTT, 1% DMSO.
Test procedure: At room temperature, the tested compound was dissolved in DMSO to prepare a 10 mM solution for later use. The substrate was dissolved in a newly prepared buffer solution, and the tested IRAK4 kinase was added thereto and mixed evenly. The DMSO solution dissolved with the tested compound was added to the above reaction mixture mixed evenly using acoustic technique (Echo 550). After incubation for 15 minutes, ^33P-ATP was added to initiate the reaction.

In another experiment the target is T2, human BTK (Homo sapiens, UniProt Q06187).
T2 construct: purchased Reaction Biology Corp
In words: In vitro BTK kinase activity, 33P isotope-labeled kinase activity assay (Reaction Biology Corp). It is filed as biochemical. The following applies: 33P-ATP, 2 hours at room temperature. The method, then:
The IC50 values were determined using ^33P isotope-labeled kinase activity assay (Reaction Biology Corp) to evaluate the inhibitory ability of the tested compounds on human BTK.
as §1
Test procedure: At room temperature, the tested compound was dissolved in DMSO to prepare a 10 mM solution for later use. The substrate was dissolved in a newly prepared buffer solution, and the tested BTK kinase was added thereto and mixed evenly. The compound dissolved in DMSO was added to the kinase reaction mixture through Echo 550 (Acoustic technology; Nanoliter range). After incubation for 20 minutes at room temperature, ^33P-ATP was added to initiate the reaction. The reaction was carried out at room temperature for 2 hours, and the radioactivity of the reaction liquid point was detected by filtration-binding method with P81 ion exchange filter paper. The kinase activity data were expressed by comparing the kinase activity of the group containing the tested compound with the kinase activity of the blank group (only containing DMSO), and the IC50 value was obtained by curve fitting by Prism4 software (GraphPad), the experimental results are shown in Table 10.

Experiment [1] has as its system TNF-α production in THP-1 cells. In words: THP-1 cytological TNFa ELISA assay (LPS-stimulated). It is filed as cell-based. As to conditions: Homo sapiens, TNF-α in culture supernatant, 150 ng/mL LPS, 18 hours. The method, then:
THP-1 human acute […] leukemia cells were purchased from ATCC (Cat #TIB-202) and cultured at 37° C. in 5% CO2 incubator. The composition of medium was RPMI1640 (Gibco, Cat #22400-105), and the supplementary compositions were 10% FBS (Gibco, Cat #10091148); 1% PenStrep (Gibco, Cat #15140); 0.05 mM 2-Mercaptoethanol (Sigma, Cat #M6250).
TNF-α Elisa kit was used to detect the content of TNF-α in cell culture supernatant samples. TNF-α was produced by stimulating THP-1 cells with 150 ng/mL LPS (Sigma, Cat #L6529).
THP-1 cells cultured normally at logarithmic growth stage were seeded in a 96-well plate (Corning #3599) at a certain concentration (1*10^5/100 μL) and then put into a cell incubator for incubation. After two hours, 16.7 μL of different concentrations of the compound to be tested (8*final concentration) were added and incubated in an incubator. After one hour, 16.7 μL of 1200 ng/mL LPS was added and incubated in an incubator. After 18 hours, the culture supernatant samples were collected by centrifugation, and the content of TNF-α could be detected by TNF-α Elisa kit. Finally, OD signals (OD450-OD570) were read on envision board reader.
The OD450-OD570 signal value was converted into a percentage inhibition rate. Inhibition rate %=(ZPE−sample)/(ZPE−HPE)*100.
“HPE” refers to the OD450-OD570 signal value of the control well without LPS stimulated cells, and “ZPE” refers to the OD450-OD570 signal value of the control well with LPS stimulated cells. The IC50 value of the compound was calculated by XLFit in the excel add-in. Y=Bottom+(Top−Bottom)/(1+(IC50/X)^HillSlope). Equation: […]
On the technique in general: An ELISA detects its analyte on a solid surface through an enzyme-linked reagent.

The test system of experiment [2] is OCI-LY10 human B-cell lymphoma cells. In words: OCI-LY10 cell proliferation inhibition (CellTiter-Glo). Type of experiment: cell-based. As to conditions: OCI-Ly10, 72 h, treated for 3 days. The method, then: OCI-LY10 human B-cell lymphoma cells were cultured in a 37° C., 5% CO2 incubator. The composition of medium was IMDM (GIBCO, Cat #12440053); the supplementary compositions were 20% FBS (Hyclone, Cat #SH30084.03); 1% PenStrep (Thermo, Cat #SV30010).
The tumor cell lines OCI-LY10 and TMD8 were used to detect the effect of the compound on inhibiting tumor cell proliferation in vitro. The tumor cell line was cultured in a 37° C., 5% CO2 incubator according to the culture conditions shown, and passaged regularly, then the cells in the logarithmic growth phase were taken, counted, and spread in a 96-well plate (the cells in each well were adjusted to an appropriate concentration, a total of […] per well was added). After incubating overnight in a 37° C., 5% CO2 incubator, drugs with different concentration gradients (10 μL of drug solution was added) were added and treated for 3 days, then 50 μL of CellTiter-Glo working solution was added to each well, and the cell plate was wrapped with aluminum foil to avoid light. The culture plate was shaken on an orbital shaker for 2 minutes to induce cell lysis, and placed at room temperature for 10 minutes to stabilize the luminescence signal, then the luminescence signal was detected on the 2104 EnVision plate reader.
The Inhibition rate (IR) of the tested compound was calculated using the following formula: IR (%)=(1−(RLU compound−RLU blank control)/(RLU solvent control−RLU blank control))*100%.
The inhibition rates of different concentrations of the compounds were calculated in Excel, and then the inhibition curves were made by GraphPad Prism software and the related parameters were calculated, including the minimum inhibition rate, the maximum inhibition rate and IC50.
(In general: In ATP-based viability assays light output follows the ATP content of the culture.)

Another experiment deals with OCI-LY3 cell line. In words: OCI-LY3 cell proliferation inhibition (CTG). It is filed as cell-based. As to conditions: Homo sapiens, incubated for 72 hours. The method, then: The tumor cell line used in this experiment was provided by Nanjing Cobioer Biotechnology Co., Ltd. See Table 13 below for specific information.
The tumor cell lines OCI-LY3 were used to detect the effect of the compound on inhibiting tumor cell proliferation in vitro. The OCI-LY3 cell line was cultured in the corresponding medium at 37° C. and 5% CO2, and the logarithmic growth phase cells were used in the experimental plating. The cells were collected and centrifuged at 800 rpm for 5 minutes, and the culture medium was re-suspended and spread in a 96-well plate. After incubating overnight in a 37° C., 5% CO2 incubator, the cells with different concentration gradients (10 μL of prepared diluent of the tested compound) were incubated for 72 hours, and the cell culture plates were incubated with CTG reagent at room temperature and away from light for 30 minutes, and then recovered to room temperature. 100 μL/hole of CTG solution was added into the biosafety cabinet away from light, and the plate shaker was shaken and mixed evenly away from light for 2 minutes, and incubated at room temperature away from light for 10 minutes. The luminescence values were read and recorded using the Perkin Elmer Envision 2104 MuLtilabel Reader.
The results of luminescence values measured at each drug concentration were normalized with the luminescence values of the blank control group, and the ratio of this value to the DMSO group was taken as the cell inhibition rate (%). Using GraphPad software, the logarithm of drug concentration (log drug concentration) versus inhibition rate was plotted, and the software automatically fitted and calculated IC50 value and 95% confidence limit value by log (inhibitor) vs. normalized response algorithm of nonlinear regression.

SMILES strings stand for the structures. Like-named read-outs stand apart in the source and are kept apart here.

T2 sequence (Q06187 whole entry): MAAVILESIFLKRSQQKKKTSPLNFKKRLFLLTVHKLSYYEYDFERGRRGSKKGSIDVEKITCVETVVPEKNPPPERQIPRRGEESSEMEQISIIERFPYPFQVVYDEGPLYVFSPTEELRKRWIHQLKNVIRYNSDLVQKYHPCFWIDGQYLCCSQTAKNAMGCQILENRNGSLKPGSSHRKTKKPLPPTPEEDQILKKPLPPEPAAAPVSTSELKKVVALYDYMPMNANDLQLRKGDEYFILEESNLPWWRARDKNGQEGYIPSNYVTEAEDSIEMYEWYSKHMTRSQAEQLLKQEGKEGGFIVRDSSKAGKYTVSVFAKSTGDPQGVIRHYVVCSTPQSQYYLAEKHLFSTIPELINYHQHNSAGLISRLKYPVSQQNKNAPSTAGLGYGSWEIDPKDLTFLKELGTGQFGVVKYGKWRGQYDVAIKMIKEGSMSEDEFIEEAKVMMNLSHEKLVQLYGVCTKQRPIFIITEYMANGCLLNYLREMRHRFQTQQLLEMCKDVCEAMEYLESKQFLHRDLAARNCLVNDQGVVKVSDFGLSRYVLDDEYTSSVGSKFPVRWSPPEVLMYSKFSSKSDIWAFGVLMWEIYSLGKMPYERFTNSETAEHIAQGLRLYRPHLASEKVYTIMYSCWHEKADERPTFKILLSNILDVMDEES

Consider `Cc1cc(-c2nc(C(=O)Nc3cn4cc(C(C)(C)O)nc4cc3N3CCCCC3)co2)ccn1` [WX040], for which the IC50 was determined as 0.0012 µM against human IRAK4; 0.0033 µM against human BTK; 0.038 µM in experiment [1]; 0.087 µM in experiment [2]; 0.283 µM with OCI-LY3 cell line.
As for `Cc1cc(-c2nc(C(=O)Nc3cn4cc(CCC(C)(C)O)nc4cc3N3CCC(C(C)(C)O)CC3)co2)ccn1` [WX045], the IC50 was found to be 0.0034 µM at human IRAK4 (33P-ATP, 120 minutes at room temperature, read-out: IRAK4/IC50); 0.0286 µM against human BTK; 0.077 µM in experiment [2]; 0.27 µM in the experiment on OCI-LY3 cell line.

(Values after patent US12459940B2, “Oxazole compound as multi-targeted inhibitor of IRAK4 and BTK” (SHANGHAI FOSUN PHARMACEUTICAL INDUSTRIAL DEVELOPMENT CO., …, priority 2019, dated 2025).)
